Experimental data taken from patent publication US8829029B2, “Dual modulators of 5HT2A and D3 receptors” (Hoffmann-La Roche Inc., priority 2008, dated 2014).

Experiments:
[1] = target: human 5-HT2A serotonin receptor (Homo sapiens (Human), UniProt P28223); test: Radioligand binding ([3H]-ketanserin) to cloned human 5-HT2A receptor expressed in HEK-293 EBNA cells; conditions: membranes of transfected HEK-293 EBNA cells, 1.1 nM [3H]-ketanserin, 1 h at RT
Procedure: The ability of the compounds to bind to the 5-HT2A, D3 and D2 receptors was determined using radioligand binding to cloned receptors selectively expressed in HEK-293 EBNA cells.
(§1) HEK-293 EBNA cells were transiently transfected with expression plasmids encoding for the human D2 or D3 dopamine- or for the human 5-HT2A serotonin receptor, respectively. The cells were harvested 48 h post-transfection, washed three times with cold PBS and stored at −80° C. prior to use. The pellet was suspended in cold 50 mM Tris-HCl buffer containing 10 mM EDTA (pH 7.4) and homogenized with a Polytron (Kinematica AG, Basel, Switzerland) for 20-30 sec at 12,000 rpm. After centrifugation at 48,000×g for 30 min at 4° C., the pellet was resuspended in cold 10 mM Tris-HCl buffer containing 0.1 mM EDTA (pH 7.4), homogenized, and centrifuged as above. This pellet was further resuspended in a smaller volume of ice cold 10 mM Tris-HCl buffer containing 0.1 mM EDTA (pH 7.4) and homogenized with a Polytron for 20-30 sec at 12,000 rpm. The protein content of this homogenate was determined with the Bio-Rad (Bradford) Protein Assay (Biorad Laboratories GmbH, München, Germany) according to the instructions of the manufacturer using gamma globulin as the standard. This homogenate was stored at −80° C. in aliquots and thawed immediately prior to use.
Aliquots of membrane preparations were thawed at RT, resuspended in assay buffer (D2, D3: 50 mM Tris-HCl, 120 mM NaCl, 5 mM MgCl2, 1 mM EDTA, 5 mM KCl, 1.5 mM CaCl2, pH=7.4; 5-HT2A: 50 mM Tris-HCl, 10 mM MgCl2, 1 mM EGTA, pH=7.4), homogenized with a Polytron for 20-30 sec at 12,000 rpm and adjusted to a final concentration of approximately 7.5 μg protein/well (D2, D3) and 15 μg protein/well (5-HT2A), respectively.
(§2) The binding affinity (Ki) of the compounds was determined using radioligand binding. Membranes were incubated in a total volume of 200 μl with a fixed concentration of radioligand (final concentration approximately 0.7 nM [^3H]-spiperone for D2, 0.5 nM [^3H]-spiperone for D3, and 1.1 nM [^3H]-ketanserin for 5-HT2A) and ten concentrations of test compound in ranging between 10 μM-0.1 nM for 1 h at RT. At the end of the incubation, the reaction mixtures were filtered on to unifilter 96-well white microplates with bonded GF/C filters (Packard BioScience, Zürich, Switzerland; preincubated for 1 h in 0.1% polyethylenimine (PEI) in assay buffer) with a Filtermate 196 harvester (Packard BioScience) and washed 3 times with cold assay buffer. The nonspecific binding was determined with equally composed reaction mixtures in the presence of 10 μM unlabelled spiperone. Per well 45 μl of Microscint 40 (Perkin Elmer, Schwerzenbach, Switzerland) was added, plates for sealed, shaken for 20 min and counted for 3 min on a Topcount Microplate Scintillation Counter (Canberra Packard SA, Zürich, Switzerland) with quenching correction.
(§3) The CPM value for each duplicate of a concentration of competing compound was averaged (y1), then the % specific binding was calculated according to the equation (((y1−non-specific)/(total binding−non-specific))×100). Graphs were plotted with the % specific binding using XLfit, a curve fitting program that iteratively plots the data using Levenburg Marquardt algorithm. The single site competition analysis equation used was y=A+((B−A)/(1+((x/C)^D))), where y is the % specific binding, A is the minimum y, B is the maximum y, C is the IC50, x is the log10 of the concentration of the competing compound and D is the slope of the curve (the Hill Coefficient). From these curves the IC50 (inhibition concentration at which 50% specific binding of the radioligand was displaced) and Hill coefficient were determined. The affinity constant (Ki) was calculated using the Cheng-Prusoff equation Ki=(IC50/1+([L]/Kd), where [L] is the concentration of radioligand and Kd is the dissociation constant of the radioligand at the receptor as determined by the saturation isotherm.

[2] = target: human D3 dopamine receptor (Homo sapiens (Human), UniProt P35462); test: Radioligand binding ([3H]-spiperone) to cloned human D3 receptor expressed in HEK-293 EBNA cells; conditions: membranes of transfected HEK-293 EBNA cells, 0.5 nM [3H]-spiperone, 1 h at RT
Procedure: as §1, with “The pellet was suspended in cold 50 mM Tris-HCl buffer containing 10 mM EDTA (pH 7.4) and homogenized with a Polytron (Kinematica AG, Basel, Switzerland) for 20-30 sec at 12,000 rpm.” left out, “This pellet was further resuspended in a smaller volume of ice cold 10 mM Tris-HCl buffer containing 0.1 mM EDTA (pH 7.4) and homogenized with a Polytron for 20-30 sec at 12,000 rpm.” left out
as §2, §3

human D3 dopamine receptor, sequence (P35462 whole entry): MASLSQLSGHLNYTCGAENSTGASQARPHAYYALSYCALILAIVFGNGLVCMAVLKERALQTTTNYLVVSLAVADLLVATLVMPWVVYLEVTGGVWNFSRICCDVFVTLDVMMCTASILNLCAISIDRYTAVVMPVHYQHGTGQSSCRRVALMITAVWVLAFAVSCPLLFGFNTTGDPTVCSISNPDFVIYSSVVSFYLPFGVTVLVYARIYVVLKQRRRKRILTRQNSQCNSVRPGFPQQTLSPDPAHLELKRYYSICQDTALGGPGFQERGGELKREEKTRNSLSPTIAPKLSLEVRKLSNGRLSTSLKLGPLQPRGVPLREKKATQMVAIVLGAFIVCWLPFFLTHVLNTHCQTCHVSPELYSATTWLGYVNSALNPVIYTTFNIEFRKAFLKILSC

## CS(=O)(=O)CC(=O)N[C@H]1CC[C@H](CCN2CCC(c3noc4cc(Cl)ccc34)CC2)CC1 [Example 56, N-trans-(4-{2-[4-(6-Chloro-benzo[d]isoxazol-3-yl)-piperidin-1-yl]-ethyl}-cyclohexyl)-2-methanesulfonyl-acetamide]
[1]
  Ki: 15.2 nM
[2]
  Ki: 14.8 nM

## O=C(CCO)N[C@H]1CC[C@H](CCN2CCC(c3noc4cc(F)c(F)cc34)CC2)CC1 [Example 68, N-trans-(4-{2-[4-(5,6-Difluoro-benzo[d]isoxazol-3-yl)-piperidin-1-yl]-ethyl}-cyclohexyl)-3-hydroxy-propionamide]
[1]
  Ki: 24.8 nM
[2]
  Ki: 11.7 nM

## COc1cc(CC(=O)N[C@H]2CC[C@H](CCN3CCC(c4noc5cc(F)ccc45)CC3)CC2)cc(OC)c1 [Example 21, 2-(3,5-Dimethoxy-phenyl)-N-trans (4-{2-[4-(6-fluoro-benzo[d]isoxazol-3-yl)-piperidin-1-yl]-ethyl}-cyclohexyl)-acetamide]
[1]
  Ki: 2.95 nM
[2]
  Ki: 8.77 nM

## O=C(CC(F)(F)F)N[C@H]1CC[C@H](CCN2CCC(c3noc4cc(F)ccc34)CC2)CC1 [Example 20, 3,3,3-Trifluoro-N-trans (4-{2-[4-(6-fluoro-benzo[d]isoxazol-3-yl)-piperidin-1-yl]-ethyl}-cyclohexyl)-propionamide]
[1]
  Ki: 2.78 nM
[2]
  Ki: 5.19 nM

## COCC(=O)N[C@H]1CC[C@H](CCN2CCC(c3noc4cc(F)c(F)cc34)CC2)CC1 [Example 62, N-trans-(4-{2-[4-(5,6-Difluoro-benzo[d]isoxazol-3-yl)-piperidin-1-yl]-ethyl}-cyclohexyl)-2-methoxy-acetamide]
[1]
  Ki: 10.5 nM
[2]
  Ki: 32.7 nM

## CC1CN(c2ccc(C(=O)N[C@H]3CC[C@H](CCN4CCC(c5noc6cc(F)ccc56)CC4)CC3)cc2)CC(C)O1 (stereo partly drawn) [Example 22, 4-(2,6-Dimethyl-morpholin-4-yl)-N-trans (4-{2-[4-(6-fluoro-benzo[d]isoxazol-3-yl)-piperidin-1-yl]-ethyl}-cyclohexyl)-benzamide]
[1]
  Ki: 21.2 nM
[2]
  Ki: 137 nM

## COC(CC(=O)N[C@H]1CC[C@H](CCN2CCC(c3noc4cc(Cl)ccc34)CC2)CC1)OC [Example 37, N-trans-(4-{2-[4-(6-Chloro-benzo[d]isoxazol-3-yl)-piperidin-1-yl]-ethyl}-cyclohexyl)-3,3-dimethoxy-propionamide]
[1]
  Ki: 13.7 nM
[2]
  Ki: 9.03 nM

## O=S(=O)(N[C@H]1CC[C@H](CCN2CCC(c3noc4cc(F)ccc34)CC2)CC1)c1ccc(Cl)cc1 [Example 48, 4-Chloro-N-trans (4-{2-[4-(6-fluoro-benzo[d]isoxazol-3-yl)-piperidin-1-yl]-ethyl}-cyclohexyl)-benzenesulfonamide]
[1]
  Ki: 5.13 nM
[2]
  Ki: 5.87 nM

## O=C(CC1CCC2(CC1)OCCO2)N[C@H]1CC[C@H](CCN2CCC(c3noc4cc(Cl)ccc34)CC2)CC1 [Example 36, N-trans (4-{2-[4-(6-Chloro-benzo[d]isoxazol-3-yl)-piperidin-1-yl]-ethyl}-cyclohexyl)-2-(1,4-dioxa-spiro[4.5]dec-8-yl)-acetamide]
[1]
  Ki: 8.31 nM
[2]
  Ki: 12.2 nM

## O=C(N[C@H]1CC[C@H](CCN2CCC(c3noc4ccc(F)cc34)CC2)CC1)c1ccc(N2CCS(=O)(=O)CC2)cc1 [Example 29, 4-(1,1-Dioxo-1,6,4-thiomorpholin-4-yl)-N trans-(4-{2-[4-(5-fluoro-benzo[d]isoxazol-3-yl)-piperidin-1-yl]-ethyl}-cyclohexyl)-benzamide]
[1]
  Ki: 12.4 nM
[2]
  Ki: 5.94 nM

## CO[C@]1(C)CC[C@H](CC(=O)N[C@H]2CC[C@H](CCN3CCC(c4noc5cc(Cl)ccc45)CC3)CC2)CC1 [Example 42B, N-trans(4-{2-[4-(6-Chloro-benzo[d]isoxazol-3-yl)-piperidin-1-yl]-ethyl}-cyclohexyl)-2-(4-cis-methoxy-4-methyl-cyclohexyl)-acetamide]
[1]
  Ki: 14 nM
[2]
  Ki: 4 nM

## O=C(N[C@H]1CC[C@H](CCN2CCC(c3noc4cc(F)c(F)cc34)CC2)CC1)C1CCOCC1 [Example 71, Tetrahydro-pyran-4-carboxylic acid trans-(4-{2-[4-(5,6-difluoro-benzo[d]isoxazol-3-yl)-piperidin-1-yl]-ethyl}-cyclohexyl)-amide]
[1]
  Ki: 7.86 nM
[2]
  Ki: 18.2 nM

## O=C(N[C@H]1CC[C@H](CCN2CCC(c3noc4cc(F)ccc34)CC2)CC1)c1ccc(Cl)cc1 [Example 10, 4-Chloro-N-trans (4-{2-[4-(6-fluoro-benzo[d]isoxazol-3-yl)-piperidin-1-yl]-ethyl}-cyclohexyl)-benzamide]
[1]
  Ki: 2.67 nM
[2]
  Ki: 3.5 nM

## O=C(C[C@@H]1CCCCO1)N[C@H]1CC[C@H](CCN2CCC(c3noc4cc(Cl)ccc34)CC2)CC1 [Example 34A, N-trans (4-{2-[4-(6-Chloro-benzo[d]isoxazol-3-yl)-piperidin-1-yl]-ethyl}-cyclohexyl)-2-(R)-tetrahydro-pyran-2-yl-acetamide]
[1]
  Ki: 13.7 nM

## O=C(N[C@H]1CC[C@H](CCN2CCC(c3noc4cc(F)ccc34)CC2)CC1)c1ccc(N2CCOCC2)cc1 [Example 4, N-trans-(4-{2-[4-(6-Fluoro-benzo[d]isoxazol-3-yl)-piperidin-1-yl]-ethyl}-cyclohexyl)-4-morpholin-4-yl-benzamide]
[1]
  Ki: 9.52 nM

## O=C(C[C@H]1CCCCO1)N[C@H]1CC[C@H](CCN2CCC(c3noc4cc(Cl)ccc34)CC2)CC1 [Example 34B, N-trans (4-{2-[4-(6-Chloro-benzo[d]isoxazol-3-yl)-piperidin-1-yl]-ethyl}-cyclohexyl)-2-(S)-tetrahydro-pyran-2-yl-acetamide]
[1]
  Ki: 15.3 nM

## O=C(N[C@H]1CC[C@H](CCN2CCC(c3noc4ccc(F)cc34)CC2)CC1)c1ccc2c(c1)OCO2 [Example 30, Benzo[1,3]dioxole-5-carboxylic acid trans (4-{2-[4-(5-fluoro-benzo[d]isoxazol-3-yl)-piperidin-1-yl]-ethyl}-cyclohexyl)-amide]
[1]
  Ki: 11.2 nM

## O=C(N[C@H]1CC[C@H](CCN2CCC(c3noc4cc(F)ccc34)CC2)CC1)c1ccnc(N2CCOCC2)c1 [Example 12, N-trans (4-{2-[4-(6-Fluoro-benzo[d]isoxazol-3-yl)-piperidin-1-yl]-ethyl}-cyclohexyl)-2-morpholin-4-yl-isonicotinamide]
[1]
  Ki: 2.46 nM

## O=C(CC1CCCCO1)N[C@H]1CC[C@H](CCN2CCC(c3noc4cc(Cl)ccc34)CC2)CC1 (stereo partly drawn) [Example 34, N-trans (4-{2-[4-(6-Chloro-benzo[d]isoxazol-3-yl)-piperidin-1-yl]-ethyl}-cyclohexyl)-2-(tetrahydro-pyran-2-yl)-acetamide]
[1]
  Ki: 5.83 nM
